The test system of assay [1] is EBC-1 lung cancer cell line. Briefly: EBC-1 cell proliferation, CellTiter-Glo assay. The format is cell-based. Particulars: Homo sapiens, 120 h; Ebc-1 cell viability, CTG assay, 5 days of treatment; read-out: CTG 5 day Ebc1 GI50. The method, then: (§1) The ability of the BCL-xL degrader low molecular weight compounds to inhibit cell proliferation and survival was assessed using the Promega CellTiter-Glo® proliferation assay on the EBC-1 lung cancer cell line (RCB1965, obtained from RIKEN.) The cells were cultured in media that is optimal for their growth at 5% CO2, 37° C. in a tissue culture incubator. Prior to seeding for the proliferation assay, the cells were split at least 2 days before the assay to ensure optimal growth density. On the day of seeding, cells were lifted off tissue culture flasks using 0.25% trypsin. Cell viability and cell density were determined using a cell counter (Vi-Cell XR Cell Viability Analyzer, Beckman Coulter). Cells with higher than 85% viability were seeded in white clear bottom 384-well plates (Greiner cat #781098) at a density of 1000 cells per well in 50 μL of standard growth media. Plates were incubated at 37° C. overnight in a tissue culture incubator.
The BCL-xL degrader low molecular weight compounds were prepared to desired concentrations. A series of 10 dilutions were made for each prepared compound. The prepared compounds were then added to the cells resulting in final concentrations of 0.508 nM-10 μM. An acoustic transfer device (Echo555, Beckman Coulter) was used to add the compounds to the cells. Each treatment was tested in triplicate assay plates. Plates were incubated at 37° C. overnight or for 5 days in a tissue culture incubator. The ability of the compounds to inhibit cell proliferation and survival was assessed using the Promega CellTiter-Glo® proliferation assay. Plates were incubated at room temperature for 20 minutes to stabilize luminescent signals prior to reading using a multimode plate reader (PHERAstar FSX Microplate Reader, BMG Labtech).
To evaluate the effect of the compound treatments, luminescent counts of untreated cells were taken the day after seeding (Day 0 readings), and after 5 days of treatment (Day 5 readings). The Day 5 readings of the untreated cells were compared to the Day 0 readings. Assays with at least one cell doubling during the incubation period were considered valid. To evaluate the effect of the drug treatments, luminescent counts from wells containing untreated cells (100% viability) were used to normalize treated samples. The concentrations of treatment required to inhibit 50% of cell growth or survival ([…]) were calculated using a four parameter logistic regression equation.
On the technique in general: ATP-based viability assays read luminescence as a measure of living cells.

The next assay deals with T1, HiBiT-tagged BCL-xL (Homo sapiens, UniProt Q07817).
T1 construct: expressed in transfected cells; host or cells: NCI-H1650 (ATCC No. CRL-5883), engineered HiBiT cell line
T1 sequence (Q07817 whole entry): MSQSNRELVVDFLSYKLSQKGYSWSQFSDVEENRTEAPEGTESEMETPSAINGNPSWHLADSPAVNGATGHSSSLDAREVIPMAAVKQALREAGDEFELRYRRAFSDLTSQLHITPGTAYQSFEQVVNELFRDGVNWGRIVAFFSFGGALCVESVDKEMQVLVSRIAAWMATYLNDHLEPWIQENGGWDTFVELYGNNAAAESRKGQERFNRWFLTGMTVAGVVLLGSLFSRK
Put plainly: NCI-H1650 BCL-xL protein levels, Nano-Glo HiBiT Lytic Detection. The format is cell-based. Particulars: NCI-H1650 expressing HiBiT-tagged BCL-xL, overnight incubation, read-out: Bcl-xl HIBIT NCIH1650 DC50. The method, then:
as §1, with “degrade BCL-xL protein” for “inhibit cell proliferation and survival”, “Nano-Glo® HiBiT Lytic Detection System. The NCI-H1650 (ATCC No. CRL-5883) was engineered to express HiBiT-tagged BCL-xL. The NCI-H1650 HiBiT” for “CellTiter-Glo® proliferation assay on the EBC-1 lung cancer”, “was” for “(RCB1965, obtained from RIKEN.) The cells were”, “protein level” for “proliferation”, “5000” for “1000”, “30” for “50”
The BCL-xL degrader low molecular weight compounds were prepared to desired concentrations. A series of 10 dilutions were made for each prepared compound. The prepared compounds were then added to the cells resulting in final concentrations of 0.508 nM-10 μM. An acoustic transfer device (Echo555, Beckman Coulter) was used to add the compounds to the cells. Each treatment was tested in triplicate assay plates. Plates were incubated at 37° C. overnight in a tissue culture incubator.
BCL-xL degradation was assessed through the addition of 30 μL of Nano-Glo® HiBiT Lytic Reagent (Promega, cat #N3040), a reagent which lyses cells and contains a furimazine substrate and the large subunit (LgBiT) used in NanoLuc® Binary Technology. The LgBiT subunit having high affinity to a HiBiT-tagged protein will bind HiBiT, if present, resulting in complex formation of a luminescent NanoBiT® enzyme. This reaction will emit a luminescent signal proportional to the amount of HiBiT-tagged BCL-xL present in the cell lysate. Plates were incubated at room temperature for 20 minutes to stabilize luminescent signals prior to reading using a luminescence reader (PHERAstar FSX Microplate Reader, BMG Labtech).
To evaluate the effect of the drug treatments, luminescent counts from wells containing untreated cells (100% HiBiT-tagged BCL-xL) were used to normalize treated samples. The concentrations of treatment required to inhibit 50% were calculated using a four parameter logistic regression equation.

A word on the GI50: it is the concentration at which growth is held to half of that of the control.

Each structure is given as a SMILES string.

Turning to `Cc1ncsc1-c1ccc([C@H](C)NC(=O)[C@@H]2C[C@@H](O)CN2C(=O)[C@@H](NC(=O)C[C@H]2CC[C@H](NC(=O)c3nc(N4CCCc5c4nnc(Nc4nc6ccccc6s4)c5C)ccc3-c3cnn(CC45CC6(C)CC(C)(C4)CC(OCCN4CCCC4)(C6)C5)c3C)CC2)C(C)(C)C)cc1` [Example 164, 6-(3-(benzo[d]thiazol-2-ylamino)-4-methyl-6,7-dihydropyrido[2,3-c]pyridazin-8(5H)-yl)-3-(1-(((1r,3R,5S,7s)-3,5-dimethyl-7-(2-(pyrrolidin-1-yl)ethoxy)adamantan-1-yl)methyl)-5-methyl-1H-pyrazol-4-yl)-N-((1S,4R)-4-(2-(((S)-1-((2S,4R)-4-hydroxy-2-(((S)-1-(4-(4-methylthiazol-5-yl)phenyl)ethyl)carbamoyl)pyrrolidin-1-yl)-3,3-dimethyl-1-oxobutan-2-yl)amino)-2-oxoethyl)cyclohexyl)picolinamide], the GI50 in assay [1] turned out to be 35 nM. For the same compound, the DC50 at HiBiT-tagged BCL-xL amounted to 2 nM.

As for `Cc1ncsc1-c1ccc([C@H](C)NC(=O)[C@@H]2C[C@@H](O)CN2C(=O)[C@@H](NC(=O)CC2CC3(C2)CN(C(=O)c2nc(N4CCCc5c4nnc(Nc4nc6ccccc6s4)c5C)ccc2-c2cnn(CC45CC6(C)CC(C)(C4)CC(OCCN4CCCC4)(C6)C5)c2C)C3)C(C)(C)C)cc1` [Example 170, (2S,4R)-1-((S)-2-(2-(2-(6-(3-(benzo[d]thiazol-2-ylamino)-4-methyl-6,7-dihydropyrido[2,3-c]pyridazin-8(5H)-yl)-3-(1-(((1r,3R,5S,7s)-3,5-dimethyl-7-(2-(pyrrolidin-1-yl)ethoxy)adamantan-1-yl)methyl)-5-methyl-1H-pyrazol-4-yl)picolinoyl)-2-azaspiro [3.3]heptan-6-yl)acetamido)-3,3-dimethylbutanoyl)-4-hydroxy-N—((S)-1-(4-(4-methylthiazol-5-yl)phenyl)ethyl)pyrrolidine-2-carboxamide], the GI50 in assay [1] is 13 nM. In addition, the DC50 on HiBiT-tagged BCL-xL turned out to be 1 nM.

Turning to `Cc1ncsc1-c1ccc([C@H](C)NC(=O)[C@@H]2C[C@@H](O)CN2C(=O)[C@@H](NC(=O)[C@H]2C[C@H](NC(=O)c3nc(N4CCCc5c4nnc(Nc4nc6ccccc6s4)c5C)ccc3-c3cnn(CC45CC6(C)CC(C)(C4)CC(OCCN4CCCC4)(C6)C5)c3C)C2)C(C)(C)C)cc1` [Example 165, 6-(3-(benzo[d]thiazol-2-ylamino)-4-methyl-6,7-dihydropyrido[2,3-c]pyridazin-8(5H)-yl)-3-(1-(((1r,3R,5S,7s)-3,5-dimethyl-7-(2-(pyrrolidin-1-yl)ethoxy)adamantan-1-yl)methyl)-5-methyl-1H-pyrazol-4-yl)-N-((1S,3R)-3-(((S)-1-((2S,4R)-4-hydroxy-2-(((S)-1-(4-(4-methylthiazol-5-yl)phenyl)ethyl)carbamoyl)pyrrolidin-1-yl)-3,3-dimethyl-1-oxobutan-2-yl)carbamoyl)cyclobutyl)picolinamide], the GI50 in assay [1] was found to be 35 nM. Also, on HiBiT-tagged BCL-xL, the DC50 is above 1670 nM.

Turning to `Cc1ncsc1-c1ccc([C@H](C)NC(=O)[C@@H]2C[C@@H](O)CN2C(=O)[C@@H](NC(=O)CCOC2CCN(C(=O)c3nc(N4CCCc5c4nnc(Nc4nc6ccccc6s4)c5C)ccc3-c3cnn(CC45CC6(C)CC(C)(C4)CC(OCCN4CCCC4)(C6)C5)c3C)CC2)C(C)(C)C)cc1` [Example 167, (2S,4R)-1-((S)-2-(3-((1-(6-(3-(benzo[d]thiazol-2-ylamino)-4-methyl-6,7-dihydropyrido[2,3-c]pyridazin-8(5H)-yl)-3-(1-(((1r,3R,5S,7s)-3,5-dimethyl-7-(2-(pyrrolidin-1-yl)ethoxy)adamantan-1-yl)methyl)-5-methyl-1H-pyrazol-4-yl)picolinoyl)piperidin-4-yl)oxy)propanamido)-3,3-dimethylbutanoyl)-4-hydroxy-N—((S)-1-(4-(4-methylthiazol-5-yl)phenyl)ethyl)pyrrolidine-2-carboxamide], the GI50 in assay [1] is 136 nM. Besides, the DC50 on HiBiT-tagged BCL-xL was 2 nM.

On to `Cc1ncsc1-c1ccc([C@H](C)NC(=O)[C@@H]2C[C@@H](O)CN2C(=O)[C@@H](NC(=O)CCC(=O)N2CCC[C@@H](NC(=O)c3nc(N4CCCc5c4nnc(Nc4nc6ccccc6s4)c5C)ccc3-c3cnn(CC45CC6(C)CC(C)(C4)CC(OCCN4CCCC4)(C6)C5)c3C)C2)C(C)(C)C)cc1` [Example 171], for which the GI50 in assay [1] came out at 121 nM. Moreover, at HiBiT-tagged BCL-xL, the DC50 is above 1670 nM.

Regarding `Cc1ncsc1-c1ccc([C@H](C)NC(=O)[C@@H]2C[C@@H](O)CN2C(=O)[C@@H](NC(=O)[C@H]2CCCN(C(=O)c3nc(N4CCCc5c4nnc(Nc4nc6ccccc6s4)c5C)ccc3-c3cnn(CC45CC6(C)CC(C)(C4)CC(OCCN4CCCC4)(C6)C5)c3C)C2)C(C)(C)C)cc1` [Example 168, (S)-1-(6-(3-(benzo[d]thiazol-2-ylamino)-4-methyl-6,7-dihydropyrido[2,3-c]pyridazin-8(5H)-yl)-3-(1-(((1r,3R,5S,7R)-3,5-dimethyl-7-(2-(pyrrolidin-1-yl)ethoxy)adamantan-1-yl)methyl)-5-methyl-1H-pyrazol-4-yl)picolinoyl)-N—((S)-1-((2S,4R)-4-hydroxy-2-(((S)-1-(4-(4-methylthiazol-5-yl)phenyl)ethyl)carbamoyl)pyrrolidin-1-yl)-3,3-dimethyl-1-oxobutan-2-yl)piperidine-3-carboxamide], in assay [1], the GI50 was found to be 73 nM. Also, at HiBiT-tagged BCL-xL, the DC50 was above 1670 nM.

With `Cc1cc(N(CCCCN(C)C(=O)CCCCCCCCCCCCSC(C)(C)[C@H](NC(=O)C2(F)CC2)C(=O)N2C[C@H](O)C[C@H]2C(=O)NCc2ccc(-c3scnc3C)cc2)c2ccc(-c3cnn(CC45CC6(C)CC(C)(C4)CC(OCCN(C)C)(C6)C5)c3C)c(C(=O)O)n2)nnc1Nc1nc2ccccc2s1` [Example 127, 6-[[6-(1,3-benzothiazol-2-ylamino)-5-methyl-pyridazin-3-yl]-[4-[13-[(2R)-2-[(1-fluorocyclopropanecarbonyl)amino]-3-[(2S,4R)-4-hydroxy-2-[[4-(4-methylthiazol-5-yl)phenyl]methylcarbamoyl]pyrrolidin-1-yl]-1,1-dimethyl-3-oxo-propyl]sulfanyltridecanoyl-methyl-amino]butyl]amino]-3-[1-[[3-[2-(dimethylamino)ethoxy]-5,7-dimethyl-1-adamantyl]methyl]-5-methyl-pyrazol-4-yl]pyridine-2-carboxylic acid], in assay [1], the GI50 was 462 nM. Besides, on HiBiT-tagged BCL-xL, the DC50 was 33 nM.

For the origin of these results see patent US20240376094A2, “SELECTIVE BCL-XL PROTAC COMPOUNDS AND METHODS OF USE” (Les Laboratoires Servier, priority 2021, published 2024).
